Here are results for 1 compound from patent US4118506A, “Pharmaceutical compositions containing 1,3-dithiol-2-ylidene malonate derivatives” (Nihon Nohyaku Co., Ltd., priority 1976, dated 1978).

Data set [1] concerns acute liver damage induced by dimethylnitrosamine. The experiment in a line: protective effect on acute liver damage associated with centrilobular necrosis, dimethylnitrosamine model. Type of data set: in vivo, mouse (dd). Particulars: dimethylnitrosamine 0.05 ml/kg i.p.; 100 mg/kg oral 6 h before; 15 h after. As to the method:
Bromobenzene (hereinafter abbreviated as BB), Dimethylnitrosamine (hereinafter abbreviated as DMN) and chloroform (hereinafter abbreviated as CF) resemble carbon tetrachloride in inducing liver damage associated with centrilobular necrosis.
Test compound or anethol trithion was orally administered to animal at the dose of 100 mg/kg. Twenty four hours after it (in the case of dimethylnitrosamine, exceptionally fifteen hours after it) the animals were sacrificed and blood samples were collected. Indices of hepatotoxicity adoptable in each chemical were measured, from which the efficacy of the compound was evaluated.
DMN male mouse 0.05 intraper-

In data set [2] the test system is glucose metabolic function of liver. In words: effect on glucose metabolism (blood sugar). Format: in vivo, mouse. Particulars: for Blood Sugar: 250 mg/kg oral 6 h before glucose 4.0 g/kg. As to the method:
Methods: The test compounds dissolved in olive oil and administered orally at the dose of 250 mg/kg to the mice. After 6 hours, 4.0 g/kg of glucose was orally administered. The same amount of glucose was given to the control animals. 0.02 ml of blood was taken from caudal vein of the mice at 30, 60, 90 and 120 min. after glucose administration. Blood sugar was measured by the procedure of Somogyi-Nelson. Number of animals used was 5 to 6 mice for each treatment.

For data set [3], the system named is cirrhosis induced by carbon tetrachloride. The experiment in a line: therapeutic effect on cirrhosis, carbon tetrachloride. Particulars: therapeutic group, diet 2000 ppm. Type of data set: in vivo, rat (SD-strain). An excerpt:
Almost all the liver diseases induced by various causes are considered to advance, finally, to cirrhosis. Cirrhosis is a final stage of liver damage, which is difficult to classify from the causal viewpoint. Usually, experimental cirrhosis is induced by long-term repeated administration of carbon tetrachloride. The therapeutic effect of the compounds of this invention on cirrhosis, which had been caused by carbon tetrachloride administration, was examined.
A 10% solution of carbon tetrachloride in olive oil was administered to the male rat (4 week-old SD-strain) intraperitoneally at the dose of 0.5 ml carbon tetrachloride/kg twice a week over a period of 10 weeks, to induce cirrhosis. Four days after the final administration of carbon tetrachloride, the formation of pseudo-lobulus was confirmed. Then the diseased animals were divided into two groups. Therapeutic group was submitted a diet containing 2000 ppm of Compound 4, while the positive control group was submitted a normal diet. Control group, to which olive oil alone had been administered, was submitted a normal diet.
At 1, 2, 4 and 8 weeks after beginning of Compound 4 feeding, 5 animals from each group were sacrificed, and the therapeutic effect on cirrhosis was evaluated by examining plasma transaminase activity (p-GPT and p-GOT, Reitman-Frankel method) and observing histopathological changes.
Degree of cirrhosis in the histopathological examination was graded as follows: […]

A short description of data set [4]: acute oral toxicity to male mice (LD50). Particulars: mouse, in vivo. An excerpt:
Further, these compounds have no detrimental effects on test animals administered therewith, so far as the doses thereof are within an ordinary administration range.

What is called LD50 is the dose at which mortality reaches 50%. Read a low LD50 as a more toxic substance. For the compound `CC(C)OC(=O)C(C(=O)OC(C)C)=C1SC=CS1` [Compound 4, diisopropyl 1,3-dithiol-2-ylidene malonate], the BSP in data set [1] was found to be 10 ± 2.0 mg/dL. This compound displayed a p-GPT in data set [1] of 204 ± 44 Karmen unit. In addition, the “Blood Sugar, percent of 0 min value” was determined as 100% in data set [2] (0 min); 229% in data set [2] (30 min); 192% in data set [2] (60 min); 129% in data set [2] (90 min); 112% in data set [2] (120 min). Also, the “Blood Sugar” value was determined as 123 ± 10.9 mg/dL in data set [2] (0 min); 282 ± 25.2 mg/dL in data set [2] (30 min); 236 ± 19.7 mg/dL in data set [2] (60 min); 159 ± 18.3 mg/dL in data set [2] (90 min); 138 ± 14.4 mg/dL in data set [2] (120 min). The p-GOT activity is reported as 562 ± 119 Karmen unit in data set [3] (1 week), 182 ± 43 Karmen unit in data set [3] (2 weeks), 142 ± 48 Karmen unit in data set [3] (4 weeks) and 120 ± 32 Karmen unit in data set [3] (8 weeks). Further, the p-GPT activity in data set [3] (1 week) came to 169 ± 30 Karmen unit; in data set [3] (2 weeks), 43 ± 11 Karmen unit; in data set [3] (4 weeks), 45 ± 23 Karmen unit; in data set [3] (8 weeks) it was 33 ± 20 Karmen unit. Besides, the LD50 in data set [4] was 3120 mg/kg.
